Test results: patent publication US20050130935A1, “Combination of a beta-2-adrenoceptor agonists and an aminosugars and their use for the treatment immunomodulatory disorders” (priority 2002, published 2005)

Legend:
[1] = test system: arachidonic acid induced ear oedema; experiment: arachidonic acid induced ear inflammation test in the mouse (Example 177); assay type: in vivo; details: i.p., 30 minutes before arachidonic acid, ears weighed one hour after application
Method: (§1) The objective of this study is to assess the effect of three doses of two chemical complexes of the invention systemically administered in the arachidonic acid induced ear inflammation test in the mouse, a commonly employed method for screening and evaluation of antiinflammatory drugs. Dexamethasone was employed as reference compound.
(§2) The study was performed in female BALB/ca mice from M & B A/S, DK-8680 Ry. At start of the acclimatisation period the mice were in the weight range of 20 g (+/−5 g).
On the day of arrival the animals were randomly allocated to groups of 8 mice.
(§3) The test substances and reference compound were administered intraperitoneally in volumes of 20 ml per kg body weight 30 minutes before application of arachidonic acid to the ear.
All groups were treated with 20 μl arachidonic acid, 100 mg/ml in acetone, on the right ear. […]
(§4) Mean weights and standard deviations were calculated. Relative ear oedema was assessed as the weight difference between right and left ear of each mouse expressed as percent of the left ear. Percent inhibition of the relative ear oedema compared with the vehicle treated groups was calculated for the test substance and reference compound treated groups.
All visible signs of ill health and any behavioural changes were recorded daily during the study. Any deviation from normal was recorded with respect to time of onset, duration and intensity. […]

[2] = test system: arachidonic acid induced ear oedema; experiment: arachidonic acid induced ear inflammation test in the mouse, complex versus its components (Example 178); assay type: in vivo; details: i.p.; for inhibition of ear oedema, in words: doses of T17
Method: as §1, with “a dose of a complex according to compared to the effect of the corresponding” for “three”, “the components” for “two chemical complexes”, “complex. All compounds were” for “invention”, “Methylprednisolone” for “Dexamethasone”
as §2
On the day of arrival the animals were randomly allocated to groups of 10 mice.
as §3
All groups were treated with 20 μl arachidonic acid, 100 mg/ml in acetone, on the right ear.
One hour after the arachidonic acid application the mice were sacrificed, the ears cut from the tip with a punch biopsy knife (8 mm diameter) and weighed.
as §4
All visible signs of ill health and any behavioural changes were recorded daily during the study. Any deviation from normal was recorded with respect to time of onset, duration and intensity.
Differences in relative ear oedema between the vehicle treated group and the other groups were tested for significance employing a non-parametric statistical method of analysis, the Mann-Whitney U test. The required level of significance will be p<0.05. […] All statistical analysis was performed employing the statistical software package Analyse-it v. 1.62.

[3] = test system: muscular pain; experiment: case report, with muscular pain (Example 179); assay type: in vivo, human
Method: They were then treated with the complex of the invention disclosed in example 56 (1500 mg/day) instead of glucosamine sulfate. […] After two weeks they were symptom free for the first time in 6 years, which persisted for another 6 weeks of treatment, where after the treatment was terminated.

[4] = test system: osteoarthritis of the knees; experiment: case report, person with osteoarthritis of the knees (Example 180); assay type: in vivo, human; details: for success of earlier analgesic treatment of osteoarthritis of the knees: treatment for periods during 8 years
Method: They were then treated with the complex of the invention disclosed in example 56 (1500 mg/day). […] The improvement persisted for the entire treatment period of 10 weeks, where after the treatment was terminated.

## C[C@@H]1C[C@H]2[C@@H]3CCC4=CC(=O)C=C[C@]4(C)[C@@]3(F)[C@@H](O)C[C@]2(C)[C@@]1(O)C(=O)CO [Dexamethasone]
[1]; 2 mg/kg
  % Inhibition of relative ear oedema: 0%
[1]; 6 mg/kg
  % Inhibition of relative ear oedema: 0%

## N[C@H]1C(O)O[C@H](CO)[C@@H](O)[C@@H]1O.O=S(=O)(O)O (stereo partly shown) [Glucosamine sulfate]
[2]; 997 mg/kg
  % Inhibition of relative ear oedema: 9%
[2]
  inhibition of ear oedema, in words: inhibited ear oedema mildly, and not statistically significantly
[3]; 1500 mg a day, continuously the last year
  improvement of muscular pain symptoms on earlier treatment: small improvement

## C[C@H]1C[C@@H]2[C@H]([C@@H](O)C[C@@]3(C)[C@H]2CC[C@]3(O)C(=O)CO)[C@@]2(C)C=CC(=O)C=C12 [Methylprednisolone]
[2]; 30 mg/kg
  % Inhibition of relative ear oedema: 55%

## CC(C)(C)NCC(O)c1ccc(O)c(CO)c1 (stereo not shown) [Salbutamol]
[2]; 3.0 mg/kg
  % Inhibition of relative ear oedema: 55%
[2]
  inhibition of ear oedema, in words: inhibited ear oedema significantly

## COc1ccc2c3c1O[C@H]1[C@@H](O)C=C[C@H]4[C@@H](C2)N(C)CC[C@@]341 [codeine]
[4]
  success of earlier analgesic treatment of osteoarthritis of the knees: limited success

## O=C(O)Cc1ccccc1Nc1c(Cl)cccc1Cl [diclofenac]
[4]
  success of earlier analgesic treatment of osteoarthritis of the knees: limited success

## N[C@H]1C(O)O[C@H](CO)[C@@H](O)[C@@H]1O (stereo partly shown) [glucosamine]
[4]; recommended dose, different formulations
  effect of earlier treatment on osteoarthritis of the knees: very limited effect

## CC(C)Cc1ccc(C(C)C(=O)O)cc1 (stereo not shown) [ibuprofen]
[3]; treatment for periods during 6 years
  success of earlier analgesic treatment of muscular pain: limited success

## CS(=O)(=O)c1ccc(C2=C(c3ccccc3)C(=O)OC2)cc1 [rofecoxib]
[4]
  success of earlier analgesic treatment of osteoarthritis of the knees: limited success
